Laboratory results as given in ChEMBL document CHEMBL3400091, “4-Dechloro-14-deoxy-oxacyclododecindione and 14-deoxy-oxacylododecindione, two inhibitors of inducible connective tissue growth factor expression from the imperfect fungus Exserohilum rostratum” (Bioorg Med Chem, 2015).
The source made the active and inactive calls. No cut-off for these calls is given here.

Tests used:
[1] = (§1) Inhibition of TGF-beta-induced human CTGF promoter activity transiently transfected in human HepG2 cells after 16 hrs by luciferase reporter assay; type: cell-based; settings: HepG2, 16 h
[2] = (§2) Binding affinity to (AGCCAGACA)9-MLP element (unknown origin) transiently transfected in human HepG2 cells assessed as inhibition of TGF-beta-induced Smad-dependent transcriptional activity preincubated for 1 hr before TGF-beta stimulation measured after 16 hrs by luciferase reporter assay; type: cell-based
[3] = test system: HepG2; assay: Inhibition of TGF-beta-induced human CTGF promoter activity transiently transfected in human HepG2 cells assessed as CTGF protein expression preincubated at 3144 nM for 1 hr before TGF-beta stimulation measured after 8 hrs by Western blot analysis; type: cell-based
[4] = test system: MDA-MB-231; assay: Antimigratory activity against human MDA-MB-231 cells assessed as reduction in formation of tubule-like structures at 2.4 uM after 16 hrs by matrigel assay relative to control; type: functional, cell-based
[5] = test system: HepG2; assay: as §1; type: cell-based
[6] = test system: MDA-MB-231; assay: Antimigratory activity against human MDA-MB-231 cells assessed as reduction in formation of tubule-like structures after 16 hrs by matrigel assay relative to control; type: functional, cell-based
[7] = test system: HepG2; assay: Inhibition of TGF-beta-induced human CTGF promoter activity transiently transfected in human HepG2 cells assessed as reduction in plasminogen activator inhibitor-1 expression preincubated at 3.2 uM for 1 hr before TGF-beta stimulation measured after 6 hrs by quantitative real-time PCR analysis; type: cell-based
[8] = test system: HepG2; assay: Inhibition of TGF-beta-induced human CTGF promoter activity transiently transfected in human HepG2 cells assessed as reduction in type 1 collagen alpha1 expression preincubated at 3.2 uM for 1 hr before TGF-beta stimulation measured after 6 hrs by quantitative real-time PCR analysis; type: cell-based
[9] = test system: HepG2; assay: Cytotoxicity against human HepG2 cells at 3.2 uM after 48 hrs by XTT assay; type: cell-based; settings: hepg2, 48 h
[10] = test system: HepG2; assay: Inhibition of TGF-beta-induced human CTGF promoter activity transiently transfected in human HepG2 cells assessed as reduction in mmp2 expression preincubated at 3.2 uM for 1 hr before TGF-beta stimulation measured after 6 hrs by quantitative real-time PCR analysis; type: cell-based
[11] = test system: MDA-MB-231; assay: Cytotoxicity against human MDA-MB-231 cells at 3.2 uM after 48 hrs by XTT assay; type: cell-based; settings: mda-mb-231, 48 h
[12] = test system: HepG2; assay: as §2, with “activity measured as remaining activity” for “activity”, “preincubated at 2.2 uM” for “preincubated”; type: cell-based
[13] = test system: HepG2; assay: Inhibition of TGF-beta-induced human CTGF promoter activity transiently transfected in human HepG2 cells assessed as CTGF expression preincubated at 3.2 uM for 1 hr before TGF-beta stimulation measured after 4 hrs by quantitative real-time PCR analysis; type: cell-based
[14] = test system: HepG2; assay: Inhibition of TGF-beta-induced human CTGF promoter activity transiently transfected in human HepG2 cells assessed as reduction in tgf-beta expression preincubated at 3.2 uM for 1 hr before TGF-beta stimulation measured after 6 hrs by quantitative real-time PCR analysis; type: cell-based
[15] = test system: HepG2; assay: Inhibition of TGF-beta-induced human CTGF promoter activity transiently transfected in human HepG2 cells assessed as reduction in alpha-smooth muscle actin expression preincubated at 3.2 uM for 1 hr before TGF-beta stimulation measured after 6 hrs by quantitative real-time PCR analysis; type: cell-based
[16] = test system: MDA-MB-231; assay: Antimigratory activity against human MDA-MB-231 cells assessed as reduction in formation of tubule-like structures at 275 nM after 16 hrs by matrigel assay relative to untreated control; type: functional; parameters: scale not given: the % may be the effect or the level left
[17] = test system: HepG2; assay: Inhibition of TGF-beta-induced human CTGF promoter activity transiently transfected in human HepG2 cells assessed as reduction in plasminogen activator inhibitor-1 expression preincubated at 700 nM for 1 hr before TGF-beta stimulation measured after 6 hrs by quantitative real-time PCR analysis; type: cell-based
[18] = test system: HepG2; assay: Inhibition of TGF-beta-induced human CTGF promoter activity transiently transfected in human HepG2 cells assessed as reduction in tgf-beta expression preincubated at 700 nM for 1 hr before TGF-beta stimulation measured after 6 hrs by quantitative real-time PCR analysis; type: cell-based
[19] = test system: HepG2; assay: Inhibition of TGF-beta-induced human CTGF promoter activity transiently transfected in human HepG2 cells assessed as reduction in mmp2 expression preincubated at 700 nM for 1 hr before TGF-beta stimulation measured after 6 hrs by quantitative real-time PCR analysis; type: cell-based
[20] = test system: HepG2; assay: Inhibition of TGF-beta-induced human CTGF promoter activity transiently transfected in human HepG2 cells assessed as reduction in type 1 collagen alpha1 expression preincubated at 700 nM for 1 hr before TGF-beta stimulation measured after 6 hrs by quantitative real-time PCR analysis; type: cell-based
[21] = test system: HepG2; assay: Inhibition of TGF-beta-induced human CTGF promoter activity transiently transfected in human HepG2 cells assessed as reduction in alpha-smooth muscle actin expression preincubated at 700 nM for 1 hr before TGF-beta stimulation measured after 6 hrs by quantitative real-time PCR analysis; type: cell-based
[22] = test system: MDA-MB-231; assay: Cytotoxicity against human MDA-MB-231 cells at 1.4 uM after 48 hrs by XTT assay; type: cell-based; settings: mda-mb-231, 48 h
[23] = test system: HepG2; assay: Cytotoxicity against human HepG2 cells at 1.4 uM after 48 hrs by XTT assay; type: cell-based; settings: hepg2, 48 h
[24] = test system: HepG2; assay: Inhibition of TGF-beta-induced human CTGF promoter activity transiently transfected in human HepG2 cells assessed as CTGF expression preincubated at 700 nM for 1 hr before TGF-beta stimulation measured after 4 hrs by quantitative real-time PCR analysis; type: cell-based
[25] = test system: HepG2; assay: Inhibition of TGF-beta-induced human CTGF promoter activity transiently transfected in human HepG2 cells assessed as CTGF protein expression preincubated at 714 nM for 1 hr before TGF-beta stimulation measured after 8 hrs by Western blot analysis; type: cell-based
[26] = test system: MDA-MB-231; assay: Antimigratory activity against human MDA-MB-231 cells assessed as reduction in formation of tubule-like structures at 568 nM after 16 hrs by matrigel assay relative to control; type: functional; parameters: scale not given: the % may be the effect or the level left
[27] = test system: HepG2; assay: Inhibition of TGF-beta-induced human CTGF promoter activity transiently transfected in human HepG2 cells assessed as reduction in mmp2 expression preincubated at 680 nM for 1 hr before TGF-beta stimulation measured after 6 hrs by quantitative real-time PCR analysis; type: cell-based
[28] = test system: HepG2; assay: Inhibition of TGF-beta-induced human CTGF promoter activity transiently transfected in human HepG2 cells assessed as reduction in tgf-beta expression preincubated at 680 nM for 1 hr before TGF-beta stimulation measured after 6 hrs by quantitative real-time PCR analysis; type: cell-based
[29] = test system: HepG2; assay: Inhibition of TGF-beta-induced human CTGF promoter activity transiently transfected in human HepG2 cells assessed as reduction in plasminogen activator inhibitor-1 expression preincubated at 680 nM for 1 hr before TGF-beta stimulation measured after 6 hrs by quantitative real-time PCR analysis; type: cell-based
[30] = test system: HepG2; assay: Inhibition of TGF-beta-induced human CTGF promoter activity transiently transfected in human HepG2 cells assessed as reduction in alpha-smooth muscle actin expression preincubated at 680 nM for 1 hr before TGF-beta stimulation measured after 6 hrs by quantitative real-time PCR analysis; type: cell-based
[31] = test system: HepG2; assay: Inhibition of TGF-beta-induced human CTGF promoter activity transiently transfected in human HepG2 cells assessed as CTGF protein expression preincubated at 407 nM for 1 hr before TGF-beta stimulation measured after 8 hrs by Western blot analysis; type: cell-based
[32] = test system: HepG2; assay: Inhibition of TGF-beta-induced human CTGF promoter activity transiently transfected in human HepG2 cells assessed as reduction in type 1 collagen alpha1 expression preincubated at 680 nM for 1 hr before TGF-beta stimulation measured after 6 hrs by quantitative real-time PCR analysis; type: cell-based
[33] = test system: HepG2; assay: Inhibition of TGF-beta-induced human CTGF promoter activity transiently transfected in human HepG2 cells assessed as CTGF expression preincubated at 680 nM for 1 hr before TGF-beta stimulation measured after 4 hrs by quantitative real-time PCR analysis; type: cell-based
[34] = test system: MDA-MB-231; assay: Antimigratory activity against human MDA-MB-231 cells assessed as reduction in formation of tubule-like structures at 136 nM after 16 hrs by matrigel assay relative to control; type: functional; parameters: scale not given: the % may be the effect or the level left

Question: With `C[C@H]1CCCCCC(=O)c2c(O)cc(O)cc2CC(=O)O1` as the compound, how does the IC50 [1] read?
Answer: Its IC50 is 86400 nM.

Question: What about the IC50 [2] of the same compound?
Answer: Its IC50 is 34200 nM.

Question: With `C/C1=C\CCC(C)C(C)OC(=O)Cc2cc(O)cc(O)c2C1=O` (stereo unspecified) as the compound, how does the inhibition [3] read?
Answer: Its inhibition is “inactive”.

Question: What about the Activity [4] of the same compound?
Answer: The Activity was “Active”.

Question: What about the inhibition [5] of the same compound?
Answer: Its inhibition is “Dose-dependent effect”.

Question: What about the IC50 [1] of the same compound?
Answer: The IC50 was 1800 nM.

Question: What about the Activity [6] of the same compound?
Answer: The Activity was “Dose-dependent effect”.

Question: What about the inhibition [7] of the same compound?
Answer: Its inhibition is “Active”.

Question: What about the inhibition [8] of the same compound?
Answer: The inhibition was “Active”.

Question: And the Activity [9]?
Answer: The Activity was “Non-toxic”.

Question: And the inhibition [10]?
Answer: Its inhibition is “Active”.

Question: What about the Activity [11] of the same compound?
Answer: The Activity was “Non-toxic”.

Question: And the inhibition [12]?
Answer: Its inhibition is “Active”.

Question: And the inhibition [13]?
Answer: The inhibition was “Active”.

Question: What about the inhibition [14] of the same compound?
Answer: The inhibition was “Active”.

Question: And the IC50 [2]?
Answer: The IC50 was over 2200 nM.

Question: And the inhibition [15]?
Answer: The inhibition was “Active”.

Question: For `c1ccc(-c2n[nH]cc2-c2ccnc3ccccc23)nc1`, which Activity [16] is on record?
Answer: Its Activity is 30%.

Question: With `C[C@H]1CCC/C=C/C(=O)c2c(O)cc(O)cc2CC(=O)O1` [DEHYDROCURVULARIN] as the compound, how does the IC50 [1] read?
Answer: Its IC50 is 4400 nM.

Question: What about the IC50 [2] of the same compound?
Answer: The IC50 was 1700 nM.

Question: With `C/C1=C\CCC(C)C(C)OC(=O)Cc2c(Cl)c(O)cc(O)c2C1=O` (stereo unspecified) as the compound, how does the inhibition [17] read?
Answer: The inhibition was “Active”.

Question: And the inhibition [18]?
Answer: The inhibition was “Active”.

Question: What about the inhibition [5] of the same compound?
Answer: The inhibition was “Dose-dependent effect”.

Question: And the IC50 [1]?
Answer: The IC50 was 336 nM.

Question: What about the inhibition [19] of the same compound?
Answer: Its inhibition is “Active”.

Question: And the Activity [6]?
Answer: The Activity was “Dose-dependent effect”.

Question: What about the inhibition [20] of the same compound?
Answer: Its inhibition is “Active”.

Question: What about the inhibition [21] of the same compound?
Answer: The inhibition was “Active”.

Question: What about the Activity [22] of the same compound?
Answer: The Activity was “Non-toxic”.

Question: And the Activity [23]?
Answer: Its Activity is “Non-toxic”.

Question: What about the IC50 [2] of the same compound?
Answer: The IC50 was 210 nM.

Question: What about the inhibition [24] of the same compound?
Answer: Its inhibition is “Active”.

Question: And the inhibition [25]?
Answer: Its inhibition is “inactive”.

Question: And the Activity [26]?
Answer: The Activity was over 70%.

Question: Which results are given for `C/C1=C\CCC(C)(O)C(C)OC(=O)Cc2c(Cl)c(O)cc(O)c2C1=O` (stereo unspecified)?
Answer: inhibition [27]: Active; inhibition [5]: Dose-dependent effect; IC50 [1]: 136 nM; inhibition [28]: Active; Activity [6]: Dose-dependent effect; inhibition [29]: Active; inhibition [30]: Active; inhibition [31]: Active; inhibition [32]: Active; inhibition [33]: Active; IC50 [2]: 136 nM; Activity [34]: >70%
